Reference: patent US20190315806A1, “POLYMYXIN DERIVATIVE, PREPARATION METHOD AND APPLICATION THEREOF” (priority 2016, published 2019)
In brackets after ≈: the same amount, converted by molar mass. Where a SMILES comes first, the peptide text is derived from it. Bridges are numbered along the chain shown (N, C = ends). [ ]: non-standard residue; d: D form. The star is where a group is joined. Heptanoyl(6-Me) = CC(C)CCCCC(=O)*; Octanoyl(7-Me) = CC(C)CCCCCC(=O)*; X2 = CC[C@H](C)CCCCC(=O)*; dDab = NCC[C@@H](N)C(=O)O; Heptanoyl = CCCCCCC(=O)*; Dab = NCC[C@H](N)C(=O)O; Nva = CCC[C@H](N)C(=O)O

How the values were obtained:
Assay type in all cases: cell-based
[1] = test system: Acinetobacter baumannii ATCC 19606; conditions: ATCC 19606
Summary of the method: (§1)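 Read-out was the lowest drug level in agar preventing visible colony growth after 18 to 24 hours at 35° C. Plates held twofold dilutions (0.03–128 μg/mL final), prepared following CLSI. Bacteria were inoculated at 10^4 CFU/dot with a multipoint inoculator.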

[2] = test system: Escherichia coli ATCC 25922; conditions: ATCC 25922
Summary of the method: as §1

[3] = test system: Pseudomonas aeruginosa ATCC 27853; conditions: ATCC 27853
Summary of the method: as §1

[4] = test system: Staphylococcus epidermidis ATCC 12228; conditions: ATCC 12228
Summary of the method: as §1

[5] = test system: Klebsiella pneumoniae ATCC BAA-2146 (NDM-1); assay: Antibacterial activity, MIC by dish double dilution method
Summary of the method: as §1

[6] = Nephrotoxicity test, renal cytotoxicity by MTT method; conditions: African green monkey
Procedure: African green monkey kidney cells (Vero cells) were cultured in MEM medium (Hyclone), 10% fetal calf serum (Invitrogen) was added before use, cultured at 37° C. under 5% CO2.
Experiment was carried out using MTT method. After digestion, cells in logarithmic growth phase were counted, then the cells were inoculated in a 96-well culture plate. After incubation for 24 h to be adherent, cells were treated with a concentration gradient of a compound of the invention (e.g., a compound prepared in the Embodiments) and the controls. After 72 h, the culture solution was removed, 100 uL of MTT reagent at a concentration of 0.5 mg/ml was added, the medium was removed after incubating for 3 hours in a 37° C. incubator. Add 150 μL DMSO solvent to each well, mix for 3 min, after which the absorbance at 570 nm (A) was measured with a microplate reader.
Cell viability %=(Adosed cell−Abackground)/(Acontrol cell−Abackground)×100%. The average value of 3 parallel wells was taken for each detection point, and the inhibition curve was drawn to calculate the IC50 value.
The African green monkey kidney cells (Vero cells) used in the experiment were from the Cell Resource Center of the Institute of Basic Medicine, Chinese Academy of Medical Sciences.

| Compound | MIC A. baumannii ATCC 19606 [1] | MIC E. coli ATCC 25922 [2] | MIC P. aeruginosa ATCC 27853 [3] | MIC S. epidermidis ATCC 12228 [4] | MIC K. pneumoniae ATCC BAA-2146 (NDM-1) ([5]; ATCC BAA-2146) | MIC K. pneumoniae ATCC BAA-2146 (NDM-1) ([5]; agar dilution, 10^4 CFU/dot, 18 to 24 hours at 35° C.) | IC50 at 72 h [6] |
| --- | --- | --- | --- | --- | --- | --- | --- |
| CC[C@H](C)CCCCC(=O)N[C@@H](CCN)C(=O)N[C@H](C(=O)N[C@H](CO)C(=O)N[C@H]1CCNC(=O)[C@H]([C@@H](C)O)NC(=O)[C@H](CCN)NC(=O)[C@H](CCN)NC(=O)[C@H]([C@@H](C)O)NC(=O)[C@@H](CC(C)C)NC(=O)[C@H](CCN)NC1=O)[C@@H](C)O [Compound 58, (S)-6-methyloctanoyl-Dab-Thr-D-Ser-ring(4-10)[Dab-Dab-D-Leu-Thr-Dab-Dab-Thr]] (X2-[Dab]T[dS][Dab][Dab][dL]T[Dab][Dab]T; lactam 4-C) | 0.06 µg/mL (≈ 0.0524 µM) | 0.12 µg/mL (≈ 0.105 µM) | 2 µg/mL (≈ 1.75 µM) | >128 µg/mL | 0.5 µg/mL (≈ 0.437 µM) | – | 189 ± 11.3 µg/mL (≈ 165 µM) |
| CC[C@H](C)CCCCC(=O)N[C@@H](CCN)C(=O)N[C@H](C(=O)N[C@H](CCN)C(=O)N[C@H]1CCNC(=O)[C@H]([C@@H](C)O)NC(=O)[C@H](CCN)NC(=O)[C@H](CCN)NC(=O)[C@H]([C@@H](C)O)NC(=O)[C@@H](Cc2ccccc2)NC(=O)[C@H](CCN)NC1=O)[C@@H](C)O [Compound 143, (S)-6-methyloctanoyl-Dab-Thr-D-Dab-ring(4-10)[Dab-Dab-D-Phe-Thr-Dab-Dab-Thr]] (X2-[Dab]T[dDab][Dab][Dab][dF]T[Dab][Dab]T; lactam 4-C) | 1 µg/mL (≈ 0.839 µM) | 0.5 µg/mL (≈ 0.42 µM) | 1 µg/mL (≈ 0.839 µM) | >128 µg/mL | 1 µg/mL (≈ 0.839 µM) | – | 142 ± 15.2 µg/mL (≈ 119 µM) |
| CC[C@H](C)CCCCC(=O)N[C@@H](CCN)C(=O)N[C@H](C(=O)N[C@H](CO)C(=O)N[C@H]1CCNC(=O)[C@H]([C@@H](C)O)NC(=O)[C@H](CCN)NC(=O)[C@H](CCN)NC(=O)[C@H]([C@@H](C)O)NC(=O)[C@@H](Cc2ccccc2)NC(=O)[C@H](CCN)NC1=O)[C@@H](C)O [Compound 115, (S)-6-methyloctanoyl-Dab-Thr-D-Ser-ring(4-10)[Dab-Dab-D-Phe-Thr-Dab-Dab-Thr]] (X2-[Dab]T[dS][Dab][Dab][dF]T[Dab][Dab]T; lactam 4-C) | 0.12 µg/mL (≈ 0.102 µM) | 0.25 µg/mL (≈ 0.212 µM) | 2 µg/mL (≈ 1.7 µM) | >128 µg/mL | 0.5 µg/mL (≈ 0.424 µM) | – | 160 ± 23.4 µg/mL (≈ 136 µM) |
| CC[C@H](C)CCCCC(=O)N[C@@H](CCN)C(=O)N[C@H](C(=O)N[C@@H](CCN)C(=O)N[C@H]1CCNC(=O)[C@H](CC(C)C)NC(=O)[C@H](CCN)NC(=O)[C@H](CCN)NC(=O)[C@H](CC(C)C)NC(=O)[C@@H](Cc2ccccc2)NC(=O)[C@H](CCN)NC1=O)[C@@H](C)O [Compound 127, (S)-6-methyloctanoyl-Dab-Thr-Dab-ring(4-10)[Dab-Dab-D-Phe-Lue-Dab-Dab-Lue]] (X2-[Dab]T[Dab][Dab][Dab][dF]L[Dab][Dab]L; lactam 4-C) | 2 µg/mL (≈ 1.65 µM) | 4 µg/mL (≈ 3.29 µM) | 4 µg/mL (≈ 3.29 µM) | 8 µg/mL (≈ 6.58 µM) | 4 µg/mL (≈ 3.29 µM) | – | 17.2 ± 2.16 µg/mL (≈ 14.1 µM) |

Now from value to compound, other results behind:

| MIC A. baumannii ATCC 19606 [1] | MIC E. coli ATCC 25922 [2] | MIC P. aeruginosa ATCC 27853 [3] | MIC S. epidermidis ATCC 12228 [4] | MIC K. pneumoniae ATCC BAA-2146 (NDM-1) ([5]; ATCC BAA-2146) | MIC K. pneumoniae ATCC BAA-2146 (NDM-1) ([5]; agar dilution, 10^4 CFU/dot, 18 to 24 hours at 35° C.) | Compound | IC50 at 72 h [6] |
| --- | --- | --- | --- | --- | --- | --- | --- |
| 0.5 µg/mL (≈ 0.425 µM) | 0.5 µg/mL (≈ 0.425 µM) | 1 µg/mL (≈ 0.851 µM) | 128 µg/mL (≈ 109 µM) | 0.5 µg/mL (≈ 0.425 µM) | – | CCCCCCC(=O)N[C@@H](CCN)C(=O)N[C@H](C(=O)N[C@@H](CCN)C(=O)N[C@H]1CCNC(=O)[C@H]([C@@H](C)O)NC(=O)[C@H](CCN)NC(=O)[C@H](CCN)NC(=O)[C@H](CC(C)C)NC(=O)[C@@H](Cc2ccccc2)NC(=O)[C@H](CCN)NC1=O)[C@@H](C)O [Compound 45, heptanoyl-Dab-Thr-Dab-ring(4-10)[Dab-Dab-D-Phe-Leu-Dab-Dab-Thr]] (Heptanoyl-[Dab]T[Dab][Dab][Dab][dF]L[Dab][Dab]T; lactam 4-C) | 160 ± 13.6 µg/mL (≈ 136 µM) |
| 0.5 µg/mL (≈ 0.42 µM) | 0.5 µg/mL (≈ 0.42 µM) | 2 µg/mL (≈ 1.68 µM) | 64 µg/mL (≈ 53.8 µM) | – | 1 µg/mL (≈ 0.841 µM) | CC(C)CCCCC(=O)N[C@@H](CCN)C(=O)N[C@H](C(=O)N[C@@H](CCN)C(=O)N[C@H]1CCNC(=O)[C@H]([C@@H](C)O)NC(=O)[C@H](CCN)NC(=O)[C@H](CCN)NC(=O)[C@H](CC(C)C)NC(=O)[C@@H](Cc2ccccc2)NC(=O)[C@H](CCN)NC1=O)[C@@H](C)O [Compound 43, 6-methylheptanoyl-Dab-Thr-Dab-ring(4-10)[Dab-Dab-D-Phe-Leu-Dab-Dab-Thr]] ({Heptanoyl(6-Me)}-[Dab]T[Dab][Dab][Dab][dF]L[Dab][Dab]T; lactam 4-C) | 159 ± 14.1 µg/mL (≈ 134 µM) |
| 0.5 µg/mL (≈ 0.438 µM) | 0.5 µg/mL (≈ 0.438 µM) | 1 µg/mL (≈ 0.876 µM) | >128 µg/mL | 0.5 µg/mL (≈ 0.438 µM) | – | CCC[C@@H]1NC(=O)[C@@H](CC(C)C)NC(=O)[C@H](CCN)NC(=O)[C@@H](NC(=O)[C@H](CCN)NC(=O)[C@@H](NC(=O)[C@H](CCN)NC(=O)CCCCC(C)C)[C@@H](C)O)CCNC(=O)[C@H]([C@@H](C)O)NC(=O)[C@H](CCN)NC(=O)[C@H](CCN)NC1=O [Compound 77, 6-methylheptanoyl-Dab-Thr-Dab-ring(4-10)[Dab-Dab-D-Leu-Nva-Dab-Dab-Thr]] ({Heptanoyl(6-Me)}-[Dab]T[Dab][Dab][Dab][dL][Nva][Dab][Dab]T; lactam 4-C) | 168 ± 12.5 µg/mL (≈ 148 µM) |
| 1 µg/mL (≈ 0.855 µM) | 1 µg/mL (≈ 0.855 µM) | 2 µg/mL (≈ 1.71 µM) | 64 µg/mL (≈ 54.7 µM) | 1 µg/mL (≈ 0.855 µM) | – | CC(C)CCCCCC(=O)N[C@@H](CCN)C(=O)N[C@H](C(=O)N[C@@H](CCN)C(=O)N[C@H]1CCNC(=O)[C@H]([C@@H](C)O)NC(=O)[C@H](CCN)NC(=O)[C@H](CCN)NC(=O)[C@H](CC(C)C)NC(=O)[C@@H](CC(C)C)NC(=O)[C@H](CCN)NC1=O)[C@@H](C)O [Compound 86, 7-methyloctanoyl-Dab-Thr-Dab-ring(4-10)[Dab-Dab-D-Leu-Leu-Dab-Dab-Thr]] ({Octanoyl(7-Me)}-[Dab]T[Dab][Dab][Dab][dL]L[Dab][Dab]T; lactam 4-C) | 87 ± 6.98 µg/mL (≈ 74.4 µM) |
| 2 µg/mL (≈ 1.75 µM) | 1 µg/mL (≈ 0.876 µM) | 1 µg/mL (≈ 0.876 µM) | >128 µg/mL | 0.5 µg/mL (≈ 0.438 µM) | – | CCCCCCC(=O)N[C@@H](CCN)C(=O)N[C@H](C(=O)N[C@@H](CCN)C(=O)N[C@H]1CCNC(=O)[C@H]([C@@H](C)O)NC(=O)[C@H](CCN)NC(=O)[C@H](CCN)NC(=O)[C@H](CC(C)C)NC(=O)[C@@H](CC(C)C)NC(=O)[C@H](CCN)NC1=O)[C@@H](C)O [Compound 82, heptanoyl-Dab-Thr-Dab-ring(4-10)[Dab-Dab-D-Leu-Leu-Dab-Dab-Thr]] (Heptanoyl-[Dab]T[Dab][Dab][Dab][dL]L[Dab][Dab]T; lactam 4-C) | 216 ± 16.1 µg/mL (≈ 189 µM) |
